A word on the IC50: it is the concentration at which inhibition is half-maximal.

*1 amine or outer side, *2 acyl side, *3 side chain or, on linkers, in order; H or OH if unused. Where a SMILES comes first, the peptide text is derived from it. Bridges are numbered along the chain shown (N, C = ends). [ ]: non-standard residue; d: D form. The star is where a group is joined. Trp(1-CH2COOH) = N[C@@H](Cc1cn(CC(=O)O)c2ccccc12)C(=O)O; X6 = CCOC(=O)Cn1cc(C[C@H](N[*:1])C(=O)[*:2])c2ccccc21; X3 = CCOC(=O)c1ccc(Nc2c(*)c(=O)c2=O)cc1; X8 = O=C(O)c1ccc(Nc2c(*)c(=O)c2=O)cc1; X1 = O=c1c(Nc2c(Cl)cccc2Cl)c(*)c1=O; Hyp = O=C(O)[C@@H]1C[C@@H](O)CN1; NMeNle = CCCC[C@H](NC)C(=O)O; X2 = CC(C)Oc1c(*)c(=O)c1=O; X5 = CN(C)c1c(*)c(=O)c1=O; NMeA = CN[C@@H](C)C(=O)O; Orn = NCCC[C@H](N)C(=O)O; X7 = CCOc1c(*)c(=O)c1=O; Dap = NC[C@H](N)C(=O)O; X4 = COc1c(*)c(=O)c1=O

The target of this experiment is T1, PD-1/PD-L1 (Homo sapiens, UniProt Q9NZQ7).
T1 construct: TVMV protease site linker (C); made in house; host or cells: HEK293T cells
T1 sequence (Q9NZQ7 18-239): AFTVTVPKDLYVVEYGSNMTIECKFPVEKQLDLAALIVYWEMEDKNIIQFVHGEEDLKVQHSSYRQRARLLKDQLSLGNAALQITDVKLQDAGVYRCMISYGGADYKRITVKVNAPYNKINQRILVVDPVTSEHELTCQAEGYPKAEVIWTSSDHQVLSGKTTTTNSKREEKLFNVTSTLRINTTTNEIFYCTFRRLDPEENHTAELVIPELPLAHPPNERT
Kind of experiment: PD-1/PD-L1 Homogenous Time-Resolved Fluorescence (HTRF) binding assay. The note with it: PD-L1-His 10 nM, PD-1-Ig 20 nM; soluble extracellular domains. The text has this:
The ability of the compounds of formula (I) to bind to PD-L1 was investigated using a PD-1/PD-L1 Homogenous Time-Resolved Fluorescence (HTRF) binding assay.
The interaction of PD-1 and PD-L1 can be assessed using soluble, purified preparations of the extracellular domains of the two proteins. The PD-1 and PD-L1 protein extracellular domains were expressed as fusion proteins with detection tags, for PD-1, the tag was the Fc portion of Immunoglobulin (PD-1-Ig) and for PD-L1 it was the 6 histidine motif (PD-L1-His). All binding studies were performed in an HTRF assay buffer consisting of dPBS supplemented with 0.1% […] bovine serum albumin and 0.05% (v/v) Tween-20. For the h/PD-L1-His binding assay, inhibitors were pre-incubated with PD-L1-His (10 nM final) for 15 m in 4 μl of assay buffer, followed by addition of PD-1-Ig (20 nM final) in 1 μl of assay buffer and further incubation for 15 m. HTRF detection was achieved using europium crypate-labeled anti-Ig (1 nM final) and allophycocyanin (APC) labeled anti-His (20 nM final). Antibodies were diluted in HTRF detection buffer and 5 μl was dispensed on top of the binding reaction. The reaction mixture was allowed to equilibrate for 30 minutes and the resulting signal (665 nm/620 nm ratio) was obtained using an EnVision fluorometer. Additional binding assays were established between the human proteins PD-1-Ig/PD-L2-His (20 & 5 nM, respectively) and CD80-His/PD-L1-Ig (100 & 10 nM, respectively).
Recombinant Proteins: Human PD-1 (25-167) with a C-terminal human Fc domain of immunoglobulin G (Ig) epitope tag [hPD-1 (25-167)-3S-IG] and human PD-L1 (18-239) with a C-terminal His epitope tag [hPD-L1(18-239)-TVMV-His] were expressed in HEK293T cells and purified sequentially by ProteinA affinity chromatography and size exclusion chromatography. Human PD-L2-His and CD80-His was obtained through commercial sources.
Table 1 lists the IC50 values for representative examples of this disclosure measured in the PD-1/PD-L1 Homogenous Time-Resolved Fluorescence (HTRF) binding assay.
For orientation: TR-FRET usually uses a lanthanide donor and a delayed reading to cut background.
In the case of `CCCC[C@H]1C(=O)N(C)[C@@H](CCCC)C(=O)N[C@@H](CC(C)C)C(=O)N[C@H](C(=O)NCC(N)=O)CSCC(=O)N[C@@H](Cc2ccc(O)cc2)C(=O)N(C)[C@@H](C)C(=O)N[C@@H](CC(N)=O)C(=O)N2CCC[C@H]2C(=O)N[C@@H](CNc2c(OC)c(=O)c2=O)C(=O)N[C@@H](CC(C)C)C(=O)N2C[C@H](O)C[C@H]2C(=O)N[C@@H](Cc2c[nH]c3ccccc23)C(=O)N[C@@H](CCCNc2c(OC)c(=O)c2=O)C(=O)N[C@@H](Cc2cn(CC(=O)O)c3ccccc23)C(=O)N1C` [Compound 1001] ({CH2CO}-Y[NMeA]NP[Dap](X4)L[Hyp]W[Orn](X4)[Trp(1-CH2COOH)][NMeNle][NMeNle]LCG-NH2; thioether N-14), the IC50 is 4.2 nM.

Regarding `CCCC[C@H]1C(=O)N(C)[C@@H](CCCC)C(=O)N[C@@H](CC(C)C)C(=O)N[C@H](C(=O)NCC(N)=O)CSCC(=O)N[C@@H](Cc2ccc(O)cc2)C(=O)N(C)[C@@H](C)C(=O)N[C@@H](CC(N)=O)C(=O)N2CCC[C@H]2C(=O)N[C@@H](CNc2c(OC)c(=O)c2=O)C(=O)N[C@@H](CC(C)C)C(=O)N2C[C@H](O)C[C@H]2C(=O)N[C@@H](Cc2c[nH]c3ccccc23)C(=O)N[C@@H](CCCN)C(=O)N[C@@H](Cc2cn(CC(=O)O)c3ccccc23)C(=O)N1C` [Compound 1002] ({CH2CO}-Y[NMeA]NP[Dap](X4)L[Hyp]W[Orn][Trp(1-CH2COOH)][NMeNle][NMeNle]LCG-NH2; thioether N-14), the half-maximal inhibitory concentration (IC50) was 3.6 nM. For `CCCC[C@H]1C(=O)N(C)[C@@H](CCCC)C(=O)N[C@@H](CC(C)C)C(=O)N[C@H](C(=O)NCC(N)=O)CSCC(=O)N[C@@H](Cc2ccc(O)cc2)C(=O)N(C)[C@@H](C)C(=O)N[C@@H](CC(N)=O)C(=O)N2CCC[C@H]2C(=O)N[C@@H](CNc2c(OCC)c(=O)c2=O)C(=O)N[C@@H](CC(C)C)C(=O)N2C[C@H](O)C[C@H]2C(=O)N[C@@H](Cc2c[nH]c3ccccc23)C(=O)N[C@@H](CCCNc2c(OCC)c(=O)c2=O)C(=O)N[C@@H](Cc2cn(CC(=O)OCC)c3ccccc23)C(=O)N1C` [Compound 1003] ({CH2CO}-Y[NMeA]NP[Dap](X7)L[Hyp]W[Orn](X7)[X6][NMeNle][NMeNle]LCG-NH2; thioether N-14) the value was 16 nM; for `CCCC[C@H]1C(=O)N(C)[C@@H](CCCC)C(=O)N[C@@H](CC(C)C)C(=O)N[C@H](C(=O)NCC(N)=O)CSCC(=O)N[C@@H](Cc2ccc(O)cc2)C(=O)N(C)[C@@H](C)C(=O)N[C@@H](CC(N)=O)C(=O)N2CCC[C@H]2C(=O)N[C@@H](CNc2c(N(C)C)c(=O)c2=O)C(=O)N[C@@H](CC(C)C)C(=O)N2C[C@H](O)C[C@H]2C(=O)N[C@@H](Cc2c[nH]c3ccccc23)C(=O)N[C@@H](CCCNc2c(N(C)C)c(=O)c2=O)C(=O)N[C@@H](Cc2cn(CC(=O)O)c3ccccc23)C(=O)N1C` [Compound 1004] ({CH2CO}-Y[NMeA]NP[Dap](X5)L[Hyp]W[Orn](X5)[Trp(1-CH2COOH)][NMeNle][NMeNle]LCG-NH2; thioether N-14), 4.3 nM; for `CCCC[C@H]1C(=O)N(C)[C@@H](CCCC)C(=O)N[C@@H](CC(C)C)C(=O)N[C@H](C(=O)NCC(N)=O)CSCC(=O)N[C@@H](Cc2ccc(O)cc2)C(=O)N(C)[C@@H](C)C(=O)N[C@@H](CC(N)=O)C(=O)N2CCC[C@H]2C(=O)N[C@@H](CNc2c(Nc3ccc(C(=O)OCC)cc3)c(=O)c2=O)C(=O)N[C@@H](CC(C)C)C(=O)N2C[C@H](O)C[C@H]2C(=O)N[C@@H](Cc2c[nH]c3ccccc23)C(=O)N[C@@H](CCCNc2c(Nc3ccc(C(=O)OCC)cc3)c(=O)c2=O)C(=O)N[C@@H](Cc2cn(CC(=O)O)c3ccccc23)C(=O)N1C` [Compound 1005] ({CH2CO}-Y[NMeA]NP[Dap](X3)L[Hyp]W[Orn](X3)[Trp(1-CH2COOH)][NMeNle][NMeNle]LCG-NH2; thioether N-14), 1.4 nM. For `CCCC[C@H]1C(=O)N(C)[C@@H](CCCC)C(=O)N[C@@H](CC(C)C)C(=O)N[C@H](C(=O)NCC(N)=O)CSCC(=O)N[C@@H](Cc2ccc(O)cc2)C(=O)N(C)[C@@H](C)C(=O)N[C@@H](CC(N)=O)C(=O)N2CCC[C@H]2C(=O)N[C@@H](CNc2c(Nc3c(Cl)cccc3Cl)c(=O)c2=O)C(=O)N[C@@H](CC(C)C)C(=O)N2C[C@H](O)C[C@H]2C(=O)N[C@@H](Cc2c[nH]c3ccccc23)C(=O)N[C@@H](CCCNc2c(Nc3c(Cl)cccc3Cl)c(=O)c2=O)C(=O)N[C@@H](Cc2cn(CC(=O)O)c3ccccc23)C(=O)N1C` [Compound 1006] ({CH2CO}-Y[NMeA]NP[Dap](X1)L[Hyp]W[Orn](X1)[Trp(1-CH2COOH)][NMeNle][NMeNle]LCG-NH2; thioether N-14) the value was 2.8 nM; for `CCCC[C@H]1C(=O)N(C)[C@@H](CCCC)C(=O)N[C@@H](CC(C)C)C(=O)N[C@H](C(=O)NCC(N)=O)CSCC(=O)N[C@@H](Cc2ccc(O)cc2)C(=O)N(C)[C@@H](C)C(=O)N[C@@H](CC(N)=O)C(=O)N2CCC[C@H]2C(=O)N[C@@H](CNc2c(OC(C)C)c(=O)c2=O)C(=O)N[C@@H](CC(C)C)C(=O)N2C[C@H](O)C[C@H]2C(=O)N[C@@H](Cc2c[nH]c3ccccc23)C(=O)N[C@@H](CCCNc2c(OC(C)C)c(=O)c2=O)C(=O)N[C@@H](Cc2cn(CC(=O)O)c3ccccc23)C(=O)N1C` [Compound 1007] ({CH2CO}-Y[NMeA]NP[Dap](X2)L[Hyp]W[Orn](X2)[Trp(1-CH2COOH)][NMeNle][NMeNle]LCG-NH2; thioether N-14), 1.6 nM; for `CCCC[C@H]1C(=O)N(C)[C@@H](CCCC)C(=O)N[C@@H](CC(C)C)C(=O)N[C@H](C(=O)NCC(N)=O)CSCC(=O)N[C@@H](Cc2ccc(O)cc2)C(=O)N(C)[C@@H](C)C(=O)N[C@@H](CC(N)=O)C(=O)N2CCC[C@H]2C(=O)N[C@@H](CNc2c(Nc3ccc(C(=O)O)cc3)c(=O)c2=O)C(=O)N[C@@H](CC(C)C)C(=O)N2C[C@H](O)C[C@H]2C(=O)N[C@@H](Cc2c[nH]c3ccccc23)C(=O)N[C@@H](CCCNc2c(Nc3ccc(C(=O)O)cc3)c(=O)c2=O)C(=O)N[C@@H](Cc2cn(CC(=O)O)c3ccccc23)C(=O)N1C` [Compound 1009] ({CH2CO}-Y[NMeA]NP[Dap](X8)L[Hyp]W[Orn](X8)[Trp(1-CH2COOH)][NMeNle][NMeNle]LCG-NH2; thioether N-14), 2.9 nM.

For the origin of these results see patent US12403174B2, “Immunomodulators” (Bristol-Myers Squibb Company, priority 2020, dated 2025).
